Structures are written as SMILES.

The record followed here is patent US7109296B2, “Human 5-HT3-C protein” (Ortho-McNeil Pharmaceutical, Inc., priority 1999, dated 2006).

What all share (assay type): cell-based
One assay has as its target T1, human 5-HT3-C (Homo sapiens, UniProt Q8WXA8).
T1 construct: Characterization of the Function of Protein Encoded by p5HT3CR in Xenopus oocvtes; expressed in transfected cells; host or cells: Xenopus laevis oocytes injected with in vitro transcribed cRNA (pGEM HE)
T1 sequence (Q8WXA8 28-447): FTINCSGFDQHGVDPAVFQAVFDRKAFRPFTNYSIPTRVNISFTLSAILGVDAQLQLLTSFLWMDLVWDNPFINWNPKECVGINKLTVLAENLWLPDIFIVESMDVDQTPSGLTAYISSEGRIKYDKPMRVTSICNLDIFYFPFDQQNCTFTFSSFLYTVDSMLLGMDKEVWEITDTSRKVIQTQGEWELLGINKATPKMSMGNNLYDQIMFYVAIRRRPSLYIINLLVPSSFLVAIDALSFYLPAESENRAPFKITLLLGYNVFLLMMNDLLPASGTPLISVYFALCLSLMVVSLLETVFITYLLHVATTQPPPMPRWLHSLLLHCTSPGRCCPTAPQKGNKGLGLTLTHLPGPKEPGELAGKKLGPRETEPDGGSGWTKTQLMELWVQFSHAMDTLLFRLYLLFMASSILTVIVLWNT
Put plainly: Two-electrode voltage clamp, Xenopus oocytes injected with 5-HT3-C cRNA alone. Here is the method: (§1) Characterization of the Function of Protein Encoded by p5HT3CR in Xenopus oocvtes Xenopus laevis oocytes were prepared and injected using standard methods previously described and known in the art (Fraser et al., 1993). Ovarian lobes from adult female Xenopus laevis (Nasco, Fort Atkinson, Wis.) were teased apart, rinsed several times in nominally Ca-free saline containing (in mM): NaCl 82.5, KCl 2.5, MgCl2 1, HEPES 5, adjusted to pH 7.0 with NaOH(OR-2), and gently shaken in OR-2 containing 0.2% collagenase Type 1 (ICN Biomedicals, Aurora, Ohio) for 2–5 hours. When approximately 50% of the follicular layers were removed, Stage V and VI oocytes were selected and rinsed in media consisting of 75% OR-2 and 25% ND-96. The ND-96 contained (in mM): NaCl 100, KCl 2, MgCl2 1, CaCl2 1.8, HEPES 5, Na pyruvate 2.5, gentamicin (50 ug/ml), adjusted to pH 7.0 with NaOH. […] For in vitro transcription, pGEM HE (Liman et al., 1992) containing human 5-HT3-A (Genbank D49394) or 5-HT3-C cDNA was linearized with NheI and transcribed with T7 RNA polymerase (Stratagene) in the presence of the cap analog m7G(5′)ppp(5′)G. The synthesized cRNA was purified with a Sephadex G-50 spin column. […] Control oocytes were injected with 50 nl of water. Oocytes were incubated for 2–14 days in ND-96 before analysis for expression of the human 5-HT3-C. Incubations and collagenase digestion were carried out at room temperature. Injected oocytes were maintained in 48 well cell culture clusters (Costar, Cambridge, Mass.) at 18° C. Whole cell agonist-induced currents were measured 1–14 days after injection with a conventional two-electrode voltage clamp (GeneClamp500, Axon Instruments, Foster City, Calif.) using standard methods previously described and known in the art (Dascal, 1987). The microelectrodes were filled with 3 M KCl, which had resistances of 1 and 2 MΩ. Cells were continuously perfused with ND96 at 10 ml/min at room temperature unless indicated. Membrane voltage was clamped at −70 mV unless indicated.

Assay [1] deals with T2, human 5-HT3-A(short) together with 5-HT3-C (Homo sapiens, UniProt P46098).
T2 construct: Characterization of the Function of Protein Encoded by p5HT3CR in Xenopus oocvtes; expressed in transfected cells; host or cells: Xenopus laevis oocytes co-injected with cRNAs
T2 sequence (P46098 24-478): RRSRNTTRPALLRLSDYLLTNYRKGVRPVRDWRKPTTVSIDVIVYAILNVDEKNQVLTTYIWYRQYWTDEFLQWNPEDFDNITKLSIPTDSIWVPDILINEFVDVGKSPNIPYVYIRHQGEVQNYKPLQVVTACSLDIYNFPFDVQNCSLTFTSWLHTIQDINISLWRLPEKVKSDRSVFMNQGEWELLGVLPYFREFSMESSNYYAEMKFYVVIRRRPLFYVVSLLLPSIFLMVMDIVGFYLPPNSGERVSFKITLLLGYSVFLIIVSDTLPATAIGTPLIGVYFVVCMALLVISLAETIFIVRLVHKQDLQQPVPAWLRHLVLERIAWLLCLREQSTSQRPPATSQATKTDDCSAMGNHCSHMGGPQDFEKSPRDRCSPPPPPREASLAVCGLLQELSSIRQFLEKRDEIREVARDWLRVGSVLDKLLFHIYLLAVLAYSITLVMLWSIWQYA
Put plainly: Two-electrode voltage clamp, oocytes co-injected with 5-HT3-A(short) and 5-HT3-C. Here is the method: as §1
Functional expression of human serotonin 5-HT3 receptor modifier subunit 5-HT3-C together with the human short form of the 5-HT3-A receptor (Genbank accession # D49394) in Xenopus oocytes is shown in FIGS. 4 and 5. Agonist was applied during the time indicated by the horizontal bar above the record. […] As a positive control for translation and surface expression, all oocytes were co-injected with a Shaker potassium channel N-terminal deletion mutant that lacks fast inactivation. […] Oocytes were continuously perfused with Ba^2+ containing ND96 at a rate of 10 ml/min at room temperature. Time scale bar: 25 sec. Similar results were obtained in experiments in which oocytes were bathed in Ca^2+ containing ND96.

Another assay addresses T3, 5-HT3-B and 5-HT3-C (Homo sapiens, UniProt O95264+Q8WXA8).
T3 construct: Characterization of the Function of Protein Encoded by p5HT3CR in Xenopus oocvtes; expressed in transfected cells; host or cells: Xenopus laevis oocytes co-injected with cRNAs
T3 sequence (O95264 22-441): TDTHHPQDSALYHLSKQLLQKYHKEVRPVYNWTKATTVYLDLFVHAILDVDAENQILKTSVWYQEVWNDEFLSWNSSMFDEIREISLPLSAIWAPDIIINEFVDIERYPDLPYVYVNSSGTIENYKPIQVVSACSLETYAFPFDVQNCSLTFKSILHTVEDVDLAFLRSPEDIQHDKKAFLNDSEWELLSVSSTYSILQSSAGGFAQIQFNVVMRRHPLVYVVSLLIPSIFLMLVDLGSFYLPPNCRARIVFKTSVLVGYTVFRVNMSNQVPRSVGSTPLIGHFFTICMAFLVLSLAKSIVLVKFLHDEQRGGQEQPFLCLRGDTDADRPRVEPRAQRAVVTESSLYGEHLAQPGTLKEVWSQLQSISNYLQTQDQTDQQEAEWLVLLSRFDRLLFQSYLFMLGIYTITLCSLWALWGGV
T3 sequence (Q8WXA8 28-447): T1 sequence (Q8WXA8 28-447)
Put plainly: Two-electrode voltage clamp, oocytes co-injected with 5-HT3-B and 5-HT3-C. The conditions noted are these: 10 μM; 5-HT3-B 3.3 ng, 5-HT3-C 3.35 ng/oocyte. Here is the method: as §1

Turning to `NCCc1c[nH]c2ccc(O)cc12` [5-HT, 5-hydroxytryptamine], on human 5-HT3-C (>100 μM, only 5-HT3-C cRNA (33.5 ng), n=5), the “sensitivity of oocytes to neuroactive compound” value is reported as “insensitive”. Besides, the “effect of agonist (agonist-induced current)” value on human 5-HT3-C (≧100 μM, 33.5 ng or 3.35 ng 5-HT3-C cRNA/oocyte) is recorded as “no effect”. Besides, the “peak response to 5-HT” value in assay [1] (10 μM 5-HT, 2-fold more 5-HT3-C cRNA (0.67 ng), control = 5-HT3-A homomeric) is recorded as “about 10 % of control”. Further, the “effect of 5-HT3-C on 5-HT response” value in assay [1] (1:1 ratio, n=6) is listed as “little effect”. In assay [1] (1.8×fold 5-HT3-C to 5-HT3-A cRNA concentration, n=3), the 5-HT response diminished result is reported as “about 20%”. In addition, in assay [1] (5-HT3-C and 5-HT3-A(short) at a ratio of 2:1, n=20), the “peak currents to 5-HT” value was −0.028+/−0.007 nA. Besides, the “sensitivity of oocytes to 5-HT” value in assay [1] (5-HT3-C:5-HT3-A(short) 10:1) was “essentially insensitive”. Moreover, in assay [1] (10 LM 5-HT, 5-HT3-C:5-HT3-A(short) 10:1 (3.35 ng : 0.33 ng), n=6), the “Responses to 5-HT” value was −0.010+/−0.008 nA. The “responsiveness of oocytes to agonist” value at 5-HT3-B and 5-HT3-C is “unresponsive”.
